ChEMBL document CHEMBL1201862, “PubChem BioAssay data set” (2004)
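Values below derive from 48-hour exposures of cells grown in 96-well plates, with endpoints linearly interpolated between the two concentrations bracketing the appropriate inhibition level. GI50 is the concentration that inhibits growth by half.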 Active and inactive are the calls of the source. No stated cut-off is given here; in the data, active = GI50 up to about 1.1 µM and inactive = higher.

Assays:
Assay in all cases: NCI tumour cell line growth inhibition, 48 h
[1] = test system: M14
[2] = test system: KM12
[3] = test system: OVCAR-8
[4] = test system: SK-MEL-28
[5] = test system: DLD-1
[6] = test system: KM-20L2
[7] = test system: IGROV-1
[8] = test system: SN12C
[9] = test system: K562
[10] = test system: SF-268
[11] = test system: LOX IMVI
[12] = test system: DMS-114
[13] = test system: SNB-78
[14] = test system: HOP-18
[15] = test system: SNB-19
[16] = test system: SK-OV-3
[17] = test system: EKVX
[18] = test system: HL-60

| SMILES | GI50 [1] | GI50 [2] | GI50 [3] | GI50 [4] | GI50 [5] | GI50 [6] | GI50 [7] | GI50 [8] | GI50 [9] | GI50 [10] | GI50 [11] | GI50 [12] | GI50 [13] | GI50 [14] | GI50 [15] | GI50 [16] | GI50 [17] | GI50 [18] |
| --- | --- | --- | --- | --- | --- | --- | --- | --- | --- | --- | --- | --- | --- | --- | --- | --- | --- | --- |
| CCCCCCCC/C=C/CCCCCCCC(=O)N(O)C1CC(n2cc(C)c(=O)[nH]c2=O)OC1CO (stereo not given) | 3.55 µM (inactive) | 11.3 µM (inactive) | 11.4 µM (inactive) | 4.51 µM (inactive) | 6.4 µM (inactive) | 3.56 µM (inactive) | 5.38 µM (inactive) | 10.6 µM (inactive) | 0.488 µM (active) | 11 µM (inactive) | 4.9 µM (inactive) | 4.41 µM (inactive) | 18 µM (inactive) | 3.65 µM (inactive) | 12.9 µM (inactive) | 10.3 µM (inactive) | – | – |
| COc1cc2c(cc1OC)C(=O)Cc1ccc3c(c1CNCC2)OCO3 | > 100 µM (inactive) | > 100 µM (inactive) | > 100 µM (inactive) | > 100 µM (inactive) | > 100 µM (inactive) | > 100 µM (inactive) | > 100 µM (inactive) | > 100 µM (inactive) | > 100 µM (inactive) | > 100 µM (inactive) | – | > 100 µM (inactive) | > 100 µM (inactive) | > 100 µM (inactive) | > 100 µM (inactive) | > 100 µM (inactive) | > 100 µM (inactive) | – |
| CC1=C[C@]2(O)C(=O)[C@H](C)C[C@H]3[C@@H](CC[C@@](C)(O)/C=C\2C1=O)C3(C)C | 17.3 µM (inactive) | 34.7 µM (inactive) | 20.5 µM (inactive) | 18.5 µM (inactive) | 17.5 µM (inactive) | 14.5 µM (inactive) | 23.4 µM (inactive) | 20.3 µM (inactive) | > 100 µM (inactive) | 20.7 µM (inactive) | 17.3 µM (inactive) | 22.6 µM (inactive) | 26.2 µM (inactive) | 44.9 µM (inactive) | 60.7 µM (inactive) | > 56.8 µM (inactive) | 70.5 µM (inactive) | > 100 µM (inactive) |
| COc1cccc2c1C(=O)c1c(O)c3c(c(O)c1C2=O)C[C@@](O)(C(C)=O)CC3S(=O)(=O)O (stereo not given in full) | > 100 µM (inactive) | > 100 µM (inactive) | > 100 µM (inactive) | > 100 µM (inactive) | > 100 µM (inactive) | > 100 µM (inactive) | > 100 µM (inactive) | > 100 µM (inactive) | > 100 µM (inactive) | > 100 µM (inactive) | > 100 µM (inactive) | > 100 µM (inactive) | > 94.2 µM (inactive) | > 100 µM (inactive) | > 100 µM (inactive) | > 100 µM (inactive) | > 100 µM (inactive) | > 100 µM (inactive) |
| NCCSc1nc(N)c2ncn(C3OC(CO)C(O)C3O)c2n1 (stereo not given) | > 100 µM (inactive) | > 100 µM (inactive) | > 100 µM (inactive) | > 100 µM (inactive) | > 100 µM (inactive) | > 100 µM (inactive) | > 100 µM (inactive) | > 100 µM (inactive) | > 100 µM (inactive) | > 100 µM (inactive) | > 100 µM (inactive) | > 100 µM (inactive) | > 100 µM (inactive) | > 100 µM (inactive) | > 100 µM (inactive) | > 100 µM (inactive) | – | > 100 µM (inactive) |
| COC(=O)c1nc(-c2ccc3c(n2)C(=O)C(=N)C(OC)=C3O)c(N)c(-c2ccc(OC)c(OC)c2O)c1C | – | 1.68 µM (inactive) | 1.08 µM (active) | 1.33 µM (inactive) | 1.17 µM (inactive) | 2.24 µM (inactive) | 1.7 µM (inactive) | 1.16 µM (inactive) | 1.93 µM (inactive) | 0.769 µM (active) | 0.29 µM (active) | 0.415 µM (active) | 2.35 µM (inactive) | 2.03 µM (inactive) | 0.628 µM (active) | 1.18 µM (inactive) | 2.57 µM (inactive) | 0.357 µM (active) |
| CCC1=C(C(C)=O)[C@@H]2CCCCC[C@@H](C(=O)OC)C2C1=O (stereo not given in full) | > 100 µM (inactive) | > 100 µM (inactive) | > 100 µM (inactive) | > 100 µM (inactive) | > 100 µM (inactive) | > 100 µM (inactive) | > 100 µM (inactive) | > 100 µM (inactive) | > 100 µM (inactive) | > 100 µM (inactive) | – | > 100 µM (inactive) | > 100 µM (inactive) | 57.9 µM (inactive) | > 100 µM (inactive) | > 100 µM (inactive) | > 100 µM (inactive) | > 100 µM (inactive) |
| CC(C)c1cccc2sc(NC(=O)C(=O)C(C#N)c3cccc4ccccc34)nc12 (stereo not given) | > 100 µM (inactive) | > 100 µM (inactive) | 72.1 µM (inactive) | > 100 µM (inactive) | 98.6 µM (inactive) | > 100 µM (inactive) | 77.6 µM (inactive) | > 100 µM (inactive) | – | > 100 µM (inactive) | – | 40.4 µM (inactive) | 93.1 µM (inactive) | 61.2 µM (inactive) | > 100 µM (inactive) | 48.4 µM (inactive) | 10.9 µM (inactive) | 30.5 µM (inactive) |
